Assay results as given in ChEMBL document CHEMBL1156829 (Proc Natl Acad Sci U S A, 2008).

Key:
[1] = system: Plasmodium falciparum; experiment: NOVARTIS: Inhibition of Plasmodium falciparum 3D7 (drug-susceptible) proliferation in erythrocyte-based infection assay; type: functional, organism-based; settings: Plasmodium falciparum, 3D7
[2] = system: Plasmodium falciparum; experiment: NOVARTIS: Inhibition of Plasmodium falciparum W2 (drug-resistant) proliferation in erythrocyte-based infection assay; type: functional, organism-based
[3] = NOVARTIS: Cytotoxicity against human hepatocellular carcinoma cell line (Huh7); type: toxicity, cell-based, Huh-7; settings: Huh7 cells (hepatocellular carcinoma cell line)
[4] = Plasmodium falciparum, W2, read-out: EC50

Compound	EC50 [1]	EC50 [2, 4]	CC50 [3]	EC50 [2]
O=C(C1CC1)N1CCc2cc(Br)cc(S(=O)(=O)N3CCCCC3)c21	8140 nM	2640 nM	> 100000 nM	–
N=c1n(CCN2CCCCC2)c2ccccc2n1CC(O)c1ccc(Cl)c(Cl)c1 (configuration not stated)	52.8 nM	224 nM	12800 nM	–
COc1ccc(Cn2c(=S)[nH]c3ccsc3c2=O)cc1	> 1430 nM	1100 nM	> 10000 nM	–
Cc1cc(OC(C)C(=O)N2CCc3ccccc32)ccc1Cl (configuration not stated)	897 nM	926 nM	> 100000 nM	–
COC(=O)c1ccc(C2C3=C(O)CC(c4ccc(F)cc4)CC3=Nc3ccccc3N2C(=O)c2ccccc2)cc1 (configuration not stated)	332 nM	290 nM	> 100000 nM	–
Cc1cc2c(cc1S(=O)(=O)N(C)C1CCCCC1)OCC(=O)N2	> 1250 nM	> 569 nM	> 10000 nM	–
Cc1ccc(CNC(=O)c2cc3sc(Cl)cc3n2C)cc1	3130 nM	1590 nM	> 100000 nM	–
Fc1cc(F)c(C2SCCN2C(=S)Nc2cccc(C(F)(F)F)c2)c(F)c1 (configuration not stated)	273 nM	187 nM	> 100000 nM	–
O=C(Nc1ccc(-c2nc3ccccc3[nH]2)cc1)c1ccc(-c2ccc(Cl)cc2)o1	193 nM	444 nM	16600 nM	–
Cc1ccc(-n2c(C(C)N(CCc3ccccc3)C(=O)c3cccc(F)c3)nc3ccccc3c2=O)c(C)c1 (configuration not stated)	> 1250 nM	764 nM	> 10000 nM	–
COc1ccccc1N(CN1C(=O)c2ccc(Br)cc2C1=O)C(C)=O	> 1250 nM	> 171 nM	> 10000 nM	–
CC1CCCCN1CCCN(Cc1c2ccccc2cc2ccccc12)C(=O)c1ccccc1Cl (configuration not stated)	878 nM	31.2 nM	> 1740 nM	–
COc1ccc(Br)cc1S(=O)(=O)N1CCCc2ccccc21	9950 nM	11400 nM	> 100000 nM	–
CCCNC1=C(c2ccc(OC)cc2)C(=O)c2ccccc21	3380 nM	754 nM	> 100000 nM	–
COc1ccc2cc(C)c3nnc(SCC(=O)N4CCN(C(=O)c5ccco5)CC4)n3c2c1	1130 nM	796 nM	> 100000 nM	–
Cc1ccc(Nc2nc(NN=Cc3ccc(-c4ccc([N+](=O)[O-])cc4)o3)nc(N3CCOCC3)n2)cc1Cl	> 598 nM	503 nM	> 10000 nM	–
CCOC(=O)c1sc2nc(N)c(C#N)c(-c3cccs3)c2c1N	1130 nM	–	> 100000 nM	No fit

Compound	EC50 [1]	EC50 [2, 4]	CC50 [3]	EC50 [2]
COc1ccc(-c2c[n+](CC(=O)c3ccc([N+](=O)[O-])cc3)c3n2CCC3)cc1	518 nM	426 nM	> 100000 nM	–
Cc1ccc(C2=NC(C(F)(F)F)(C(F)(F)F)N=C3C=CC(Cl)=CN32)cc1	> 1210 nM	> 1300 nM	> 10000 nM	–
COCCCNc1nc2nonc2nc1N(C)C1CCOCC1	> 682 nM	> 1250 nM	> 10000 nM	–
COc1ccc(S(=O)(=O)Nc2ccc(N3CCC(Cc4ccccc4)CC3)c(C(=O)NC(C)C)c2)cc1	2120 nM	2430 nM	> 100000 nM	–
COc1cccc(C=NNC(=O)CSc2ccccc2C)c1O	7940 nM	1960 nM	> 100000 nM	–
CCCOC(=O)C1=C(C)NC2=C(C(=O)CC(c3ccc(OC)c(OC)c3)C2)C1c1cccc(C)c1 (configuration not stated)	91.3 nM	35.9 nM	32000 nM	–
O=C(c1ccccc1)N1CCc2nc(Cc3ccc(F)cc3Cl)sc2C1	4400 nM	2360 nM	> 57400 nM	–
CC1CC2=C(CC1CNCCCN(C)C)C(C)(C)CCC2 (configuration not stated)	250 nM	844 nM	> 10000 nM	–
Oc1ccc(-c2ccccc2)cc1CN1CCCCCC1	242 nM	53.7 nM	67400 nM	–
O=C1NC(=S)NC1=Cc1ccc(C(F)(F)F)cc1	> 12500 nM	1920 nM	> 100000 nM	–
CC(C)(C)CC(C)(C)c1ccc(O)c(CN2CCN(CCC#N)CC2)c1	1290 nM	272 nM	> 100000 nM	–
CC[n+]1c(/C=C/C=C2\N(C)c3ccccc3C2(C)C)n(-c2ccccc2)c2ccc(Cl)cc21	> 1500 nM	> 1220 nM	> 10000 nM	–
Cc1cc(N2CCN(Cc3ccc(F)cc3)CC2)n2c(nc3ccccc32)c1C#N	625 nM	530 nM	> 100000 nM	–
CCOC(=O)c1cn(CC)c2cc(N(C)CCc3ccc(OC)c(OC)c3)c(F)cc2c1=O	103 nM	26.7 nM	> 100000 nM	–
O=C1CC(c2ccccc2)CC2=C1C(c1ccccc1F)Nc1ccccc1N2 (configuration not stated)	462 nM	359 nM	> 100000 nM	–
CCCCCCN(C(=O)c1ccc2ccccc2c1)C(CC)c1nc2ccccc2c(=O)n1-c1cccc(Cl)c1 (configuration not stated)	> 1250 nM	> 1130 nM	> 10000 nM	–
COc1cc(C(=O)Nc2nnc(-c3ccccc3)o2)cc(OC)c1OC	5180 nM	> 12500 nM	> 100000 nM	–
